3 compounds from patent US9149441B2 (priority 2008, dated 2015) can be followed below.

In data set [1] the test system is S. Aureus. Briefly: Vancomycin formulations in S. Aureus septic shock rat model. It counts as in vivo. Particulars: for Survival: simultaneous treatment group, peritonitis rat model (Table 8), 15 mg/kg twice/day for 3 days. The method, then: The efficacy of vancomycin nanospheres as compared to the solution formulation was determined in a septic shock rat model.
Three scenarios were evaluated:
Group 1. Determination of the efficacy of the encapsulated and solution formulation of vancomycin. [Pre-treatment Group].
The nanospheres and solution vancomycin formulations (15 mg/kg twice/day for 3 days) or blank nanospheres (control) were injected to different groups of animals 4 hrs prior to the animals being injected with S. Aureus (i.p.; 1.0×10^8 cfu/mL). Blood samples (0.5 mL) were obtained to determine the bacterial count at 0, 4, 24, 48, 96 and 120 hrs.
Group 2. Determination of the efficacy of the encapsulated and solution formulations of vancomycin. [Simultaneous treatment Group]
In this set of experiments, S. Aureus bacteria (1.0×10^8 cfu/mL) were administered i.p. and simultaneously the NS and solution gentamicin formulations (15 mg/kg twice/day for 3 days) or blank nanospheres (control) were injected subcutaneously to different groups of rats. Blood samples (0.5 mL) were obtained to determine the bacterial count at 0, 4, 24, 48, 96 and 120 hrs.
Group 3. Determination of the efficacy of the nanosphere and solution formulation of vancomycin. [Delayed treatment Group].
In this set of experiments, S. Aureus bacteria (1.0×10^8 cfu/mL) were administered i.p. to different groups of rats and 4 hrs following infection the NS and solution gentamicin formulations (15 mg/kg twice/day for 3 days) or blank nanospheres (control) were injected. Blood samples (0.5 mL) were obtained to determine the bacterial count at 0, 4, 24, 48, 96 and 120 hrs.

Data set [2] concerns red blood cells (RBCs). Kind of data set: Potassium release from red blood cells (membrane toxicity). Particulars: all experimental concentrations; solution effect rising up to 0.08 mg/ml. It counts as cell-based. An excerpt:
Potassium is found in high concentrations inside the red blood cells (RBCs). Any damage to membrane will result in leaking out of potassium from the RBCs.

For data set [3], the system named is E. Coli. Briefly: Gentamicin formulations in E. Coli septic shock (peritonitis) rat model. It is filed as in vivo. Particulars: for % inhibition of the bacterial growth in the blood / Bact. count (cfu/mL): 120 hrs; for Bact. count (cfu/mL): blood; for Survival: peritonitis rat model (Table 5). The method, then:
Gentamicin in the solution and the nanosphere form were tested on rats in order to evaluate the E. Coli distribution in the body, also the two formulations were evaluated in septic shock rat models.
Group 1. Determination of the efficacy of the encapsulated and solution formulation of gentamicin. [Pre-treatment Group].
The nanospheres and solution gentamicin formulations (15 mg/kg twice/day for 3 days) or blank nanospheres (control) were injected to different groups of animals 4 hrs prior to the animals being injected with E. Coli (i.p.; 1.1×10^9 cfu/mL). Blood samples were obtained to determine the bacterial count at 0, 4, 24, 48, 96 and 120 hrs.
Group 2. Determination of the efficacy of the encapsulated and solution formulations of gentamicin. [Simultaneous treatment Group]
In this set of experiments, E. Coli bacteria (1.1×10^9 cfu/mL) were administered i.p. and simultaneously the NS and solution gentamicin formulations (15 mg/kg twice/day for 3 days) or blank nanospheres (control) were injected subcutaneously to different groups of rats. Blood samples were obtained to determine the bacterial count at 0, 4, 24, 48, 96 and 120 hrs.
Group 3. Determination of the efficacy of the nanosphere and solution formulation of gentamicin. [Delayed treatment Group].
In this set of experiments, E. Coli bacteria (1.1×10^9 cfu/mL) were administered i.p. to different groups of rats and 4 hrs following infection the NS and solution gentamicin formulations (15 mg/kg twice/day for 3 days) or blank nanospheres (control) were injected. Blood samples were obtained to determine the bacterial count at 0, 4, 24, 48, 96 and 120 hrs.

Compound `CN[C@H](CC(C)C)C(=O)N[C@H]1C(=O)N[C@@H](CC(N)=O)C(=O)N[C@H]2C(=O)N[C@H]3C(=O)N[C@H](C(=O)N[C@H](C(=O)O)c4cc(O)cc(O)c4-c4cc3ccc4O)[C@H](O)c3ccc(c(Cl)c3)Oc3cc2cc(c3O[C@@H]2O[C@H](CO)[C@@H](O)[C@H](O)[C@H]2O[C@H]2C[C@](C)(N)[C@H](O)[C@H](C)O2)Oc2ccc(cc2Cl)[C@H]1O` [Vancomycin Solution, vancomycin] displayed a Survival in data set [1] of 40%. For the same compound, the “Bacterial count in the blood vs blank BSA nanospheres” value in data set [1] (text Group 1, FIG. 14 (prophylactic treatment)) is listed as “significant lower bacterial count”; in data set [1] (text Group 2, FIG. 15 (simultaneous treatment)) it was “significant lower bacterial count”.

Turning to `C[C@@H]1[C@H](O)[C@@H](C)/C=C/C=C/C=C/C=C/C=C/C=C/C=C/[C@H](O[C@@H]2O[C@H](C)[C@@H](O)[C@H](N)[C@@H]2O)C[C@@H]2O[C@](O)(C[C@@H](O)C[C@@H](O)[C@H](O)CC[C@@H](O)C[C@@H](O)CC(=O)O[C@H]1C)C[C@H](O)[C@H]2C(=O)O` [solution formulation of Amphotericin B, Amphotericin B], the “Potassium release from RBCs” value in data set [2] is recorded as “significant release of potassium from the RBCs”.

As to gentamicin [Gentamicin Solution], the Survival in data set [1] came to 40%; in data set [3] (simultaneous treatment group), 35%; in data set [3] (simultaneous treatment group, listed as gentamicin solution) it was 55%. The “Bacterial count in the blood vs blank BSA nanospheres” value in data set [1] (text Group 3, FIG. 16 (delayed treatment)) was “significant lower bacterial count”. For the same compound, the “% inhibition of the bacterial growth in the blood” value is reported as 15% in data set [3] (delayed treatment group (Table 7), listed as Solution); “about 15%” in data set [3] (delayed treatment group (Table 7), listed as gentamicin solution); “about 35%” in data set [3] (prophylactic treatment group (Table 6)); 75% in data set [3] (simultaneous treatment group (Table 4)); “about 75%” in data set [3] (simultaneous treatment group (Table 4), listed as gentamicin solution). Moreover, the “Bact. count (cfu/mL)” value in data set [3] (delayed treatment group) came to 110 cfu/mL; in data set [3] (simultaneous treatment group, 15 mg/kg twice/day for 3 days), 35 cfu/mL.
